Results reported in patent publication US7427640B1, “Oil materials comprising dimerdiol ester and cosmetics comprising the ester” (Nippon Fine Chemical Co., Ltd., priority 1999, dated 2008).
Like-named read-outs stand apart in the source and are kept apart here.

Tests used:
Format in all cases: physicochemical
[1] = Dispersability for pigment, titanium dioxide
Excerpt: (§1) Titanium dioxide, red iron oxide and organic pigment used in the measurement are PIGMOLITE CR-50, PIGMOLITE BENGARA No. 211 and Red 202, respectively, manufactured by DAITO KASEI KOGYO Co. Ltd. The dispersability is expressed by amount (g) of the tested sample per 100 g of the pigment at wet point (W.P) and flow point (F.P).

[2] = Gloss of wax-solidified ester (handy glossmeter); conditions: coated on paraffin paper, intensity of reflected light at 60°
Protocol: Each of the solidified product was coated on paraffin paper and gloss was measured with a handy glossmeter manufactured by HORIBA Ltd. Gloss was expressed by intensity of light reflected on the coated surface of paraffin paper at incident angle/reflection angle of 60°.

[3] = Refractive index (refractometer Model 3)
Protocol: Refractive index of the dimerdiol esters obtained in Examples 1, 3, 5, 7, 9 and 11 were measured. Each of the refractive index was measured at 30° C. using a refractometer Model 3 (Manufactured by ATAGO BUSSAN Ltd.).
Refractive index of the esters obtained in Examples 28-35 were measured. Each of the refractive index was measured at 20° C. using a refractometer Model 3 (Manufactured by ATAGO BUSSAN Ltd.).

[4] = Dispersability for pigment, organic pigment Red No. 202
Excerpt: as §1

[5] = Dispersability for pigment, red iron oxide; conditions: amount of tested sample per 100 g of the pigment at wet point
Excerpt: as §1

[6] = Alkali hydrolysis resistance; conditions: 0.8 g of sample heated at 80° C. for 3 hours in 25 mL of 0.05 N KOH-ethanol solution
Protocol: Alkali hydrolysis resistance of the dimerdiol esters obtained in Examples 1, 3, 5, 7, 9 and 11 were measured. The alkali hydrolysis resistance was expressed by the decomposition ratio of 0.8 g of sample which was heated at 80° C. for 3 hours in 25 mL of 0.05 N of KOH-ethanol solution.

[7] = Oxidation stability, Rancimat 676 automatic oils and fats stability test
Excerpt: Index of the oxidation stability was expressed by the time until conductance of the trapped water started rising. […] Index of the oxidation stability was expressed by the time until conductance of the trapped water started rising.

[8] = amount of tested sample per 100 g of the pigment at flow point
[9] = amount of tested sample per 100 g of the pigment at wet point
[10] = 120° C., 3 g of sample, air flow rate 20 L/Hr, time until conductance of the trapped water started rising, esters of Examples 1-12

With `CC(C)CCCCCCCCCCCCCCCOC(=O)CC(O)C(=O)OCCCCCCCCCCCCCCCC(C)C` (centres unmarked) [di-iostearyl malate, di-isostearyl malate] the “Titanium dioxide F.P” value [1, 8] was 55 g, the “Titanium dioxide W.P” value [1, 9] was 26 g and the “Gloss, Candelira wax” value ([2]; solidified by compounding 20% of candelira wax) was 41. The “Gloss, Ceresin” value ([2]; solidified by compounding 20% of ceresine) was 35, the Refractive index ([3]; 20° C.) was 1.4611 and the “Red 202 F.P” value [4, 8] was 200 g. For the same compound, the “Red 202 W.P” value [4, 9] was 106 g and the “Red iron oxide W.P” value [5] was 63 g.

Work on `CC(C)CCCCC(=O)OCC(O)CO` (centres unmarked) [glyceryl isooctanoate, reference compound] yielded a Decomposition ratio [6] of 8%.

dimerdiol [PESPOL HP-1000] gave a Refractive index ([3]; 30° C.) of 1.4778.

In the case of erucic acid dimerdiol ester [Example 3], the “Index of oxidation stability” value [7, 10] is reported as 3 h, the Decomposition ratio [6] is reported as 79% and the Refractive index ([3]; 30° C.) is reported as 1.4719.

For “hydrogenated rosin dimerdiol ester [Example 1]”, the “Index of oxidation stability” value [7, 10] was 6 h, the Decomposition ratio [6] was 3% and the Refractive index ([3]; 30° C.) was 1.5075.

With “isostearic acid dimerdiol ester [Example 11]” the “Index of oxidation stability” value [7, 10] was 8 h, the Decomposition ratio [6] was 70% and the Refractive index ([3]; 30° C.) was 1.4709.

With “long chain branched fatty acid dimerdiol ester [Example 7]” the “Index of oxidation stability” value [7] was 4 h.

For “mono-isostearic acid dimerdiol ester [Example 5]”, the “Index of oxidation stability” value [7, 10] was 8 h, the Decomposition ratio [6] was 71% and the Refractive index ([3]; 30° C.) was 1.4659.
